Experiment in all cases: TGFα-shedding assay-based GPCR screening with chimeric Gα subunit proteins
What all share (type): cell-based

The target in assay [1] is T1, 348 GPCRs (Homo sapiens, UniProt Q15760).
T1 construct: expressed in transfected cells; host or cells: HEK293A
To be noted: 10µM, Favipiravir 100μM.

Assay [2] deals with T2, 348 GPCRs (Homo sapiens, UniProt P51685).
T2 construct: expressed in transfected cells; host or cells: HEK293A
To be noted: 10µM, Favipiravir 100μM.

In assay [3] the target is T3, 348 GPCRs (Homo sapiens, UniProt P34998).
T3 construct: expressed in transfected cells; host or cells: HEK293A
T3 sequence (P34998 24-415): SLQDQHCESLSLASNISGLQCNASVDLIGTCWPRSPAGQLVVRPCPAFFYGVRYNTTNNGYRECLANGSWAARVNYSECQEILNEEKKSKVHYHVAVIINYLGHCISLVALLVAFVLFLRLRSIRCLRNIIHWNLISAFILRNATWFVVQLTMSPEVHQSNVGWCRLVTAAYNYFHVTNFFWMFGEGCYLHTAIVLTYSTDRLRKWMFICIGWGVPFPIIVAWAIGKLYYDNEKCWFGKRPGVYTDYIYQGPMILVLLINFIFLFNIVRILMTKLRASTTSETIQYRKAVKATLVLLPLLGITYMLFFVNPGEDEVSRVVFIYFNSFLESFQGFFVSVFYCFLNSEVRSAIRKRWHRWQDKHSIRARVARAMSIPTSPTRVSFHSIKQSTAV

The target in assay [4] is 348 GPCRs (Homo sapiens, UniProt Q8TDS4).
In assay [5] the target is 348 GPCRs (Homo sapiens, UniProt O95665). To be noted: NTSR2 (neurotensin receptor type 2); 10µM, Favipiravir 100μM.
Assay [6] has as its target T4, 348 GPCRs (Homo sapiens, UniProt Q92633).
T4 construct: expressed in transfected cells; host or cells: HEK293A
The following applies: 10µM, Favipiravir 100μM.

Assay [7] addresses T5, 348 GPCRs (Homo sapiens, UniProt P25025).
T5 sequence (P25025 1-360): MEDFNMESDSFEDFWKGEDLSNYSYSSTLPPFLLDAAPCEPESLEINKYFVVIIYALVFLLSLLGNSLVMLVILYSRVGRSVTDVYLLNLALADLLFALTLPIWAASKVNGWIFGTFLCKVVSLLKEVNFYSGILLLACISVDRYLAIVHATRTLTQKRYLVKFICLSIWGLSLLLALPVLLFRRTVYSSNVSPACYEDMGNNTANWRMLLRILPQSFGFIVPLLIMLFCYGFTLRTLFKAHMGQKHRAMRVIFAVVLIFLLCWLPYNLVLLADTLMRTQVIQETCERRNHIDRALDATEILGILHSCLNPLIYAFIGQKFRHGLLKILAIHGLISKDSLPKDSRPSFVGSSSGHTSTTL

In assay [8] the target is T6, 348 GPCRs (Homo sapiens, UniProt Q9NZH0).
T6 construct: expressed in transfected cells; host or cells: HEK293A
The following applies: 10µM, Favipiravir 100μM.

The target in assay [9] is T7, 348 GPCRs (Homo sapiens, UniProt Q16570).
T7 construct: expressed in transfected cells; host or cells: HEK293A
T7 sequence (Q16570 1-336): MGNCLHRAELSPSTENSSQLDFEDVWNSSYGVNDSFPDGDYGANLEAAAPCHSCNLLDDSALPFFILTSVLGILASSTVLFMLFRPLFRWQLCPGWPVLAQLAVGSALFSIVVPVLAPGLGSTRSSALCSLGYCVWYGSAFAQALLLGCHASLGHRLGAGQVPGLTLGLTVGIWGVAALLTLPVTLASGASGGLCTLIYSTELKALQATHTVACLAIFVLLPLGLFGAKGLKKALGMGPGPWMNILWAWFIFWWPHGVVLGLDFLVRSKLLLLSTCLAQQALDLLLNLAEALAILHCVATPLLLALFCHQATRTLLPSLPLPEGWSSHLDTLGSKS
To be noted: 10µM, Favipiravir 100μM.

In assay [10] the target is T8, 348 GPCRs (Homo sapiens, UniProt Q9NYW1).
T8 construct: expressed in transfected cells; host or cells: HEK293A
T8 sequence (Q9NYW1 1-312): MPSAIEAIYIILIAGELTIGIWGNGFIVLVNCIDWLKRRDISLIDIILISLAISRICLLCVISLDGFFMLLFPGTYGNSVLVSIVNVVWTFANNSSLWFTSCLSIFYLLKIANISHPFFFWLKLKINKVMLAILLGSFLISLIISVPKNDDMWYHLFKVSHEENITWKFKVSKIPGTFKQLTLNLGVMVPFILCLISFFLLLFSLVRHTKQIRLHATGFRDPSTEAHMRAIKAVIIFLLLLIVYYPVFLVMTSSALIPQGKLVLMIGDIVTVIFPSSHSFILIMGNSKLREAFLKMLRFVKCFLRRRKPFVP
The following applies: 10µM, Favipiravir 100μM.

The mark [11] stands for this setting: GPR19 (G Protein-Coupled Receptor 19), read-out: % GPCR activation compared to TPA.
Where [12] appears, read: CCR8 (C-C motif chemokine receptor 8), read-out: % GPCR activation compared to TPA.
[13] abbreviates: LPAR1 (lysophosphatidic acid receptor 1), read-out: % GPCR activation compared to TPA.
The mark [14] stands for this setting: GPRC5B (G protein-coupled receptor class C group 5 member B), read-out: % GPCR activation compared to TPA.
[15] abbreviates: DARC (Duffy blood group, chemokine receptor), read-out: % GPCR activation compared to TPA.
Setting [16] is: TAS2R9 (taste receptor, type 2, member 9), read-out: % GPCR activation compared to TPA.
Setting [17] is: read-out: % GPCR activation compared to TPA, GPR19 (G Protein-Coupled Receptor 19).
Where [18] appears, read: read-out: % GPCR activation compared to TPA, CCR8 (C-C motif chemokine receptor 8).
Where [19] appears, read: read-out: % GPCR activation compared to TPA, GPCR CRHR1 (corticotropin releasing hormone receptor 1).
Where [20] appears, read: HCA2, read-out: % GPCR activation compared to TPA, GPCR GPR109A (hydroxycarboxylic acid receptor 2 (HCA2)).
The mark [21] stands for this setting: read-out: % GPCR activation compared to TPA, LPAR1 (lysophosphatidic acid receptor 1).
[22] abbreviates: read-out: % GPCR activation compared to TPA, GPCR CXCR2 (C-X-C motif chemokine receptor 2).
[23] abbreviates: read-out: % GPCR activation compared to TPA, GPRC5B (G protein-coupled receptor class C group 5 member B).
The mark [24] stands for this setting: read-out: % GPCR activation compared to TPA, DARC (Duffy blood group, chemokine receptor).
[25] abbreviates: read-out: % GPCR activation compared to TPA, TAS2R9 (taste receptor, type 2, member 9).
[26] abbreviates: GPCR CRHR1 (corticotropin releasing hormone receptor 1), read-out: % GPCR activation compared to TPA.
The mark [27] stands for this setting: HCA2, GPCR GPR109A (hydroxycarboxylic acid receptor 2 (HCA2)), read-out: % GPCR activation compared to TPA.
Where [28] appears, read: GPCR CXCR2 (C-X-C motif chemokine receptor 2), read-out: % GPCR activation compared to TPA.

These results are taken from article PMC10175918 (Communications Biology, 2023).

Structures are written as SMILES. Read-outs that look alike come from different tables or passages of the source.

T4 sequence (Q92633 whole entry): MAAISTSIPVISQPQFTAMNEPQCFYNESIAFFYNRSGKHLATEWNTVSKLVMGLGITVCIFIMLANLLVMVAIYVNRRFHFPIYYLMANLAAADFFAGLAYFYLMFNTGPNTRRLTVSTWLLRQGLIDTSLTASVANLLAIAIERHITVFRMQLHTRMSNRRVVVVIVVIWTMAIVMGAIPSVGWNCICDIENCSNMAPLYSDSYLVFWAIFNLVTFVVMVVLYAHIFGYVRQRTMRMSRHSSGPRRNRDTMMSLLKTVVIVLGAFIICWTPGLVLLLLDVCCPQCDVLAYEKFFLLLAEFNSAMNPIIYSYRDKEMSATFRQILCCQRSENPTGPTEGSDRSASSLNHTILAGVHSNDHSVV
Chain of 348 GPCRs (Homo sapiens, UniProt Q8TDS4) (Q8TDS4 whole entry): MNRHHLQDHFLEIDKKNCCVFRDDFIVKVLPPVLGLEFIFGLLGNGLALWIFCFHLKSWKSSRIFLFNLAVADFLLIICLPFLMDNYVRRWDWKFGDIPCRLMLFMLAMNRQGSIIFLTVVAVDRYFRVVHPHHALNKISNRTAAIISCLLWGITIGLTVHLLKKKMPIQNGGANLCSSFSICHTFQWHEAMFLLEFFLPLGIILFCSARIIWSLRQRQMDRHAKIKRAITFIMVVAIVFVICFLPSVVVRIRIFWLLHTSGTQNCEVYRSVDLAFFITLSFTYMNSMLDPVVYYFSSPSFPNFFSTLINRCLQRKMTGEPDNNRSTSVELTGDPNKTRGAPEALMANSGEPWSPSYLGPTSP
T1 sequence (Q15760 whole entry): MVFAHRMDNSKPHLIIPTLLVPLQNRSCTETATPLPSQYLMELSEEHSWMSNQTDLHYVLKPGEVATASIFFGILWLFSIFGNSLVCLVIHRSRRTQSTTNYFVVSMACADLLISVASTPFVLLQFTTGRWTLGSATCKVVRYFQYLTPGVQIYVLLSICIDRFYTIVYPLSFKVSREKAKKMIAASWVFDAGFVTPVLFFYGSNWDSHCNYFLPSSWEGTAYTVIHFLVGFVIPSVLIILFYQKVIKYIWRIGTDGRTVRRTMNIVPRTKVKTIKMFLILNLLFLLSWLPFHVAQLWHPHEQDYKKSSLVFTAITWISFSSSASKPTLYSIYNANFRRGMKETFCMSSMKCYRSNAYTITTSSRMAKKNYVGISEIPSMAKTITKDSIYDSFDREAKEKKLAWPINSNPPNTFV
Chain of 348 GPCRs (Homo sapiens, UniProt O95665) (O95665 whole entry): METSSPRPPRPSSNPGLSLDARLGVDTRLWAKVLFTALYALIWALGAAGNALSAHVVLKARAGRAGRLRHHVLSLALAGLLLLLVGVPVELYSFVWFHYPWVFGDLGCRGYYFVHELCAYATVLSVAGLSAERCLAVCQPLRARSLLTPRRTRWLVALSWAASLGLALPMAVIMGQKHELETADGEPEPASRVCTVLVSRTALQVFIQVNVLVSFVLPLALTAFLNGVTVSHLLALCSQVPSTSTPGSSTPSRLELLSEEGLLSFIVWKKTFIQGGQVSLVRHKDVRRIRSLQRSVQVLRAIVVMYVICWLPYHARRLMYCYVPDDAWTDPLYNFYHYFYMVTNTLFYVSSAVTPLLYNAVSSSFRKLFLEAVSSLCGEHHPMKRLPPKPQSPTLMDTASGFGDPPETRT
T6 sequence (Q9NZH0 29-403): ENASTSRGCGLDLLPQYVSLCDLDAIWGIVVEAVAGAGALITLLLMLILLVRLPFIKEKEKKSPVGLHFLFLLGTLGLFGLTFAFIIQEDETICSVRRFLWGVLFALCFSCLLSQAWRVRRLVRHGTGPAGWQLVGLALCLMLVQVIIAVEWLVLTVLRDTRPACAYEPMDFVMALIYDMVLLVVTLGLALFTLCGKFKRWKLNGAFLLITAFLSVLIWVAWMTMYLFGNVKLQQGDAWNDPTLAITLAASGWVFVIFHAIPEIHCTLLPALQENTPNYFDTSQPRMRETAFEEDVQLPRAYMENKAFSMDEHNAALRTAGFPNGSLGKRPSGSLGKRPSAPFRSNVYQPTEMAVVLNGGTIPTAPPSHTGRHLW
T2 sequence (P51685 whole entry): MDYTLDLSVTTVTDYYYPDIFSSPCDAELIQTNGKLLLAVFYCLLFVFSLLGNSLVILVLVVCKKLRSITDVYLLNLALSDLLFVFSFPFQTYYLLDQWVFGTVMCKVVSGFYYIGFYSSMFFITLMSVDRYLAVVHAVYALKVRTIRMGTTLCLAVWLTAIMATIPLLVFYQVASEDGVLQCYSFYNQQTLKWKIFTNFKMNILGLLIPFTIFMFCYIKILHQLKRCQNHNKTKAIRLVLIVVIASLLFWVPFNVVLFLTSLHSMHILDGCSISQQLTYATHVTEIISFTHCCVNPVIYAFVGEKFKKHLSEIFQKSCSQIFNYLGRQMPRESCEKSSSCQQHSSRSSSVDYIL

On to `NC(=O)c1nc(F)cnc1O` [favipiravir, 6-fluoro-3-hydroxy-2-pyrazinecarboxamide], for which the activation at 100 µM is -0.654% at 348 GPCRs [1] (setting [11]); -0.37% on 348 GPCRs [3] (GPCR CRHR1 (corticotropin releasing hormone receptor 1), 100μM, read-out: % GPCR activation compared to TPA); 1.41% on 348 GPCRs [4] (HCA2, GPCR GPR109A (hydroxycarboxylic acid receptor 2 (HCA2)), 100μM, read-out: % GPCR activation compared to TPA); -0.272% on 348 GPCRs [7] (GPCR CXCR2 (C-X-C motif chemokine receptor 2), 100μM, read-out: % GPCR activation compared to TPA); 7.41% on 348 GPCRs [8] (setting [14]); 1.68% at 348 GPCRs [9] (setting [15]). Moreover, the activation at 10 µM on 348 GPCRs [2] (setting [12]) is -0.669%; at 348 GPCRs [6] (setting [13]), 0.687%; on 348 GPCRs [10] (setting [16]) it was 2.37%. Besides, the “% GPCR activation compared to TPA” value on 348 GPCRs [5] is recorded as -3.411%.

On to `CC(C)OC(=O)[C@H](C)N[P@](=O)(OC[C@H]1O[C@@H](n2ccc(=O)[nH]c2=O)[C@](C)(F)[C@@H]1O)Oc1ccccc1` [sofosbuvir], for which the activation at 100 µM was -1.2% at 348 GPCRs [1] (setting [17]), -12.5% at 348 GPCRs [8] (setting [23]) and -1.56% on 348 GPCRs [9] (setting [24]). For the same molecule, the activation at 10 µM was -2.89% on 348 GPCRs [2] (setting [18]); 1.15% at 348 GPCRs [3] (setting [19]); -29.6% at 348 GPCRs [4] (setting [20]); 3.41% at 348 GPCRs [6] (setting [21]); -1.43% on 348 GPCRs [7] (setting [22]); -0.791% on 348 GPCRs [10] (setting [25]). In addition, the “% GPCR activation compared to TPA” value at 348 GPCRs [5] is 0.2553%.

In the case of `CCC(CC)COC(=O)[C@H](C)N[P@](=O)(OC[C@H]1O[C@@](C#N)(c2ccc3c(N)ncnn23)[C@H](O)[C@@H]1O)Oc1ccccc1` [remdesivir], the activation at 100 µM on 348 GPCRs [1] (setting [17]) was -1.37%; on 348 GPCRs [8] (setting [23]) it was 6.88%; at 348 GPCRs [9] (setting [24]) it was 5.17%. The activation at 10 µM on 348 GPCRs [2] (setting [18]) came out at 0.425%; on 348 GPCRs [3] (setting [19]) it was 2.05%; on 348 GPCRs [4] (setting [20]) it was 2.36%; on 348 GPCRs [6] (setting [21]) it was 0.719%; on 348 GPCRs [7] (setting [22]), 2.41%; on 348 GPCRs [10] (setting [25]) it was 1.69%. Further, the “% GPCR activation compared to TPA” value on 348 GPCRs [5] is reported as -1.859%.

With `N#C[C@@]1(c2ccc3c(N)ncnn23)O[C@H](CO)[C@@H](O)[C@H]1O` [GS441524], the activation at 100 µM at 348 GPCRs [1] (setting [11]) was -0.932%; on 348 GPCRs [8] (setting [14]), 4.38%; at 348 GPCRs [9] (setting [15]), 1.78%. In addition, the activation at 10 µM on 348 GPCRs [2] (setting [12]) was -5.03%; at 348 GPCRs [3] (setting [26]), 0.467%; on 348 GPCRs [4] (setting [27]) it was 0.689%; at 348 GPCRs [6] (setting [13]), 1.19%; on 348 GPCRs [7] (setting [28]) it was 0.398%; at 348 GPCRs [10] (setting [16]) it was 0.686%. Moreover, on 348 GPCRs [5], the “% GPCR activation compared to TPA” value came to 1.005%.

Regarding `CC(C)C(=O)OC[C@H]1O[C@@H](n2ccc(NO)nc2=O)[C@H](O)[C@@H]1O` [molnupiravir], the activation at 100 µM at 348 GPCRs [1] (setting [11]) was -0.76%; on 348 GPCRs [8] (setting [14]), -3.43%; at 348 GPCRs [9] (setting [15]), 0.223%. The activation at 10 µM on 348 GPCRs [2] (setting [12]) is -2.68%; at 348 GPCRs [3] (setting [26]) it was 1.11%; at 348 GPCRs [4] (setting [27]) it was -37.5%; at 348 GPCRs [6] (setting [13]), -1.42%; on 348 GPCRs [7] (setting [28]) it was 0.926%; on 348 GPCRs [10] (setting [16]), 0.0718%. Moreover, the “% GPCR activation compared to TPA” value on 348 GPCRs [5] is reported as 0.1275%.
